Patent US20250263426A1, “PDE4B INHIBITOR AND USE THEREOF” (Xizang Haisco Pharmaceutical Co., Ltd., priority 2022, published 2025)
Like-named read-outs stand apart in the source and are kept apart here.

How the values were obtained:
[1] = molecular target: PDE4B2 (Homo sapiens (Human), UniProt Q07343); test: Effect of compounds on PDE4B2 activity (fluorescence polarization kit)
Description: [formula] • I∥ (S535): fluorescence intensity in parallel direction • I⊥ (P535): fluorescence intensity in perpendicular direction • G: G factor=1

[2] = molecular target: PDE4D2 (Homo sapiens (Human), UniProt Q08499); test: Effect of compounds on PDE4D2 activity (fluorescence polarization kit); assay type: biochemical
Sequence of PDE4D2 (Q08499 303-809, change not shown): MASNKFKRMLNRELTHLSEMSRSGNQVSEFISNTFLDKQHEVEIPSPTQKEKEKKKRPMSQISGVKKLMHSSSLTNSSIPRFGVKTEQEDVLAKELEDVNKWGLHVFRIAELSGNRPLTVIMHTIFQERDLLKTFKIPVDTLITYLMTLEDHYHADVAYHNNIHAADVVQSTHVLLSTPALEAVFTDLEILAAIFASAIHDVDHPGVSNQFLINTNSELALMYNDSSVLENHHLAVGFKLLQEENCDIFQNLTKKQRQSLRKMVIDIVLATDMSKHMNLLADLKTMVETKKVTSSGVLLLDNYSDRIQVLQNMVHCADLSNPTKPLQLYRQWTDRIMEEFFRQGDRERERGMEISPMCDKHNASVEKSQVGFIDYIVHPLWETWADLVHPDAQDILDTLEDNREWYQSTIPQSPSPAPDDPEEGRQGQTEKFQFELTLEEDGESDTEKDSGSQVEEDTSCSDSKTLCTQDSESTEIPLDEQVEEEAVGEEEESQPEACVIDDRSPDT
Description: FP was usually represented by mP value.
[formula] • I∥ (S520): fluorescence intensity in parallel direction • I⊥ (P520): fluorescence intensity in perpendicular direction • G: G factor=1
[formula] • mP(sample): mP of the test compound in a reaction well • mP(negative control): mP in the negative control well • mP(positive control): mP in the positive control well
According to the calculated inhibition rate at each concentration, the IC50 value of each compound was calculated by GraphPad Prism 8 software.

[3] = system: human peripheral blood mononuclear cells (TNF-α release); test: Inhibition of LPS-induced TNF-α release from human peripheral blood mononuclear cells in vitro; assay type: cell-based; settings: 4 h; for Emax: read-out: Max inhibition (%)
Description: 5. Detection of Inhibitory Activity of Compounds on the Release of Tumor Necrosis Factor-α (TNF-α) from Human Peripheral Blood Mononuclear Cells Induced by Lipopolysaccharide (LPS) In Vitro
The concentration of hPBMC cells was adjusted to 0.25×10^6 cells/mL with RPMI1640 medium and inoculated into a 96-well plate in an amount of 50000 cells per well. […] Incubation was carried out for 4 h in an incubator at 37° C. and 5% CO2. The cell supernatant was collected, and the content of TNF-α in the supernatant sample was detected by human TNF-α Elisa quantitative test kit (Sino Biological, Cat #KIT10602). The IC50 value was calculated using GraphPad Prism software.

[4] = Homo sapiens, PBMC, read-out: Re IC50
[5] = Homo sapiens, PBMC, hPBMC, 100 ng/mL LPS
[6] = relative IC50, hPBMC, 100 ng/mL LPS, read-out: Re IC50
[7] = Homo sapiens, PBMC, read-out: Re IC50 (nM)

Sequence of PDE4B2 (Q07343 other isoform, or with tags, fused parts or gaps): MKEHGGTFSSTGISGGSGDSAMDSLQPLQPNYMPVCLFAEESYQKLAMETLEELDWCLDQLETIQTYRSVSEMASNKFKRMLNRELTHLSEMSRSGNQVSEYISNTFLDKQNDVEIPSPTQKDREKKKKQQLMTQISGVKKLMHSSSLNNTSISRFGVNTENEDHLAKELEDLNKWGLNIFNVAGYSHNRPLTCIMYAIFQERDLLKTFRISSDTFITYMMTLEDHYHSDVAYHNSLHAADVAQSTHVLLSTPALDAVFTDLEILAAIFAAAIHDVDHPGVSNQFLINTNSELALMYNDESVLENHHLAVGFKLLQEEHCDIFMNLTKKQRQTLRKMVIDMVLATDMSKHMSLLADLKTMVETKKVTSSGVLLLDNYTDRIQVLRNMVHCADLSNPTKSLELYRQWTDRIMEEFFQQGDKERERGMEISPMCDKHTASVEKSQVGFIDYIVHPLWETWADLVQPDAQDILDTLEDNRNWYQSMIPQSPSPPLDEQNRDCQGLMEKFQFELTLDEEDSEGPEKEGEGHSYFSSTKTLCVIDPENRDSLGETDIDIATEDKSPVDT

IC50 [1] [nM] | IC50 [2] [nM] | IC50 [3, 4] [nM] | SMILES | Emax [3, 5] [%] | IC50 ([1]; read-out: PDE4B2 IC50) [nM] | Max inhibition (%) ([3]; hPBMC, 100 ng/mL LPS) | IC50 [3, 6] [nM] | Emax ([3]; Homo sapiens, PBMC) [%] | IC50 [3, 7] [nM]
< 10 | 10 to 50 | < 10 | COC(=O)NCC1(Nc2nc(N3C[C@H]4CC(c5ncc(Cl)cn5)=C[C@H]4C3)nc3c2[S@+]([O-])CC3)CCC1 [Compound 73-2] | 67.9 | – | – | – | – | –
– | 10 to 50 | – | CC#Cc1cnc2c(c1)OC[C@@H]1CN(c3nc4c(c(NC(C)(C)CNC(=O)OC)n3)[S@+]([O-])CC4)CCN21 [Compound 140-1] | – | 10 to 50 | 93.38 | < 10 | – | –
– | 50 to 100 | – | CC#Cc1cnc2c(c1)OC[C@H]1CN(c3nc4c(c(NC(C)(C)CNC(=O)OC)n3)[S@+]([O-])CC4)CCN21 [Compound 140-2] | – | 10 to 50 | 89.58 | 10 to 50 | – | –
< 10 | < 10 | < 10 | COC(=O)NCC1(Nc2nc(N3C[C@@H]4CC(c5ncc(Cl)cn5)=C[C@@H]4C3)nc3c2[S@+]([O-])CC3)CCC1 [Compound 73-1] | 67.5 | – | – | – | – | –
– | 10 to 50 | – | [O-][S+]1CCc2nc(N3C[C@@H]4CC(c5ccc(Cl)cc5)=C[C@@H]4C3)nc(NC3CN(CCCF)C3)c21 (single isomer, unassigned) [Compound 24-2] | – | < 10 | – | – | – | –

The remaining lines, values behind:

SMILES | IC50 [1] [nM] | IC50 [2] [nM] | IC50 [3, 4] [nM] | Emax [3, 5] [%] | IC50 ([1]; read-out: PDE4B2 IC50) [nM] | Max inhibition (%) ([3]; hPBMC, 100 ng/mL LPS) | IC50 [3, 6] [nM] | Emax ([3]; Homo sapiens, PBMC) [%] | IC50 [3, 7] [nM]
C#Cc1cnc(C2=CCN(c3nc4c(c(NC5(CN/C(C)=N/C#N)CCC5)n3)[S@+]([O-])CC4)CC2)nc1 [Compound 39] | < 10 | < 10 | < 10 | 71.1 | – | – | – | – | –
NC(=O)OCC1(Nc2nc(N3CC=C(c4ncc(Cl)cn4)CC3)nc3c2[S@+]([O-])CC3)CCCC1 [Compound 52] | < 10 | < 10 | 10 to 50 | – | – | – | – | – | –
[O-][S+]1CCc2nc(N3CCN4c5ccccc5OC[C@H]4C3)nc(NC3(CO)COC3)c21 (some centres unmarked) [Compound 72-3] | – | 10 to 50 | – | – | < 10 | 65.66 | < 10 | – | –
CNC(=O)OCC1(Nc2nc(N3CC=C(c4ncc(C5CC5)cn4)CC3)nc3c2[S@+]([O-])CC3)CCC1 [Compound 90] | 10 to 50 | 10 to 50 | 10 to 50 | 69.5 | – | – | – | – | –
[O-][S@+]1CCc2nc(N3CC4CN(c5ccc6c(c5)CC6)CC4C3)nc(Nc3cccc(F)c3)c21 (some centres unmarked) [Compound 76-1] | – | 10 to 50 | – | – | < 10 | 74.65 | 10 to 50 | – | –
C#Cc1ccc(C2=CCN(c3nc4c(c(NC5(CNC(=O)OC)CCC5)n3)[S@+]([O-])CC4)CC2)nc1 [Compound 69] | < 10 | < 10 | < 10 | 70.9 | – | – | – | – | –
CNC(=O)OCC(C)(C)Nc1nc(N2CC=C(c3ncc(Cl)cn3)CC2)nc2c1[S@+]([O-])CC2 [Compound 104] | 10 to 50 | 10 to 50 | 10 to 50 | 78.8 | – | – | – | – | –
CN1C[C@@H](Nc2nc(N3C[C@H]4CN(c5ccc6c(c5)CC6)C[C@H]4C3)nc3c2[S@@+]([O-])CC3)CCC1=O [Compound 109-4] | – | < 10 | – | – | < 10 | 85.74 | < 10 | – | –
C#Cc1ccc(C2=CCN(c3nc4c(c(NC(C)(C)COC(N)=O)n3)[S@+]([O-])CC4)CC2)nc1 [Compound 105] | < 10 | < 10 | < 10 | 84 | – | – | – | – | –
COC(=O)NCC1(Nc2nc(N3CC=C(c4nc5ccccc5s4)CC3)nc3c2[S@+]([O-])CC3)CCC1 [Compound 79] | < 10 | < 10 | 10 to 50 | 65.5 | – | – | – | – | –
NC(=O)OCC1(Nc2nc(N3CC=C(c4ncc(Cl)cn4)CC3)nc3c2[S@+]([O-])CC3)CCC1 [Compound 48] | < 10 | < 10 | 10 to 50 | 73.9 | – | – | – | – | –
C#Cc1ccc(N2CCN(c3nc4c(c(NC5(CO)CCC5)n3)[S+]([O-])CCC4)CC2)cc1 (centres unmarked) [Compound 41] | < 10 | 10 to 50 | – | – | – | – | – | 69.8 | 10 to 50
Cc1coc(C2=CCN(c3nc4c(c(NC5(COC(N)=O)CCC5)n3)[S@+]([O-])CC4)CC2)n1 [Compound 50] | < 10 | < 10 | < 10 | 72.1 | – | – | – | – | –
[O-][S@+]1CCc2nc(N3CC=C(c4ncc(Cl)cn4)CC3)nc(Nc3ccnc(F)c3)c21 [Compound 85-1] | – | < 10 | – | – | < 10 | 71.38 | < 10 | – | –
CC#Cc1ccc(C2=CCN(c3nc4c(c(NC5(COC(N)=O)CCC5)n3)[S@+]([O-])CC4)CC2)nc1 [Compound 98] | < 10 | < 10 | < 10 | 72.7 | – | – | – | – | –
CC#Cc1cnc2c(c1)OC[C@@H]1CN(c3nc4c(c(NC(C)(C)COC(N)=O)n3)[S@+]([O-])CC4)CCN21 [Compound 112-1] | – | 10 to 50 | – | – | < 10 | 83.76 | 10 to 50 | – | –
CC(C)(COC(N)=O)Nc1nc(N2CC=C(c3ncc(N4CC[Si](C)(C)CC4)cn3)CC2)nc2c1[S@+]([O-])CC2 [Compound 106] | – | 10 to 50 | – | – | 10 to 50 | 98.36 | 10 to 50 | – | –
C#Cc1cnc(C2=CCN(c3nc4c(c(NC5(COC)CCC5)n3)[S@+]([O-])CC4)CC2)nc1 [Compound 64] | < 10 | < 10 | 10 to 50 | 79.9 | – | – | – | – | –

SMILES | IC50 [1] [nM] | IC50 [2] [nM] | IC50 [3, 4] [nM] | Emax [3, 5] [%] | IC50 ([1]; read-out: PDE4B2 IC50) [nM] | Max inhibition (%) ([3]; hPBMC, 100 ng/mL LPS) | IC50 [3, 6] [nM] | Emax ([3]; Homo sapiens, PBMC) [%] | IC50 [3, 7] [nM]
CC#Cc1ccc(C2=CCN(c3nc4c(c(NC5(CNC(=O)OC)CCC5)n3)[S@+]([O-])CC4)CC2)nc1 [Compound 100] | < 10 | < 10 | < 10 | 79.2 | – | – | – | – | –
[O-][S+]1CCc2nc(N3CCN4c5ccccc5OC[C@@H]4C3)nc(NC3(CO)COC3)c21 (some centres unmarked) [Compound 72-4] | – | < 10 | – | – | < 10 | 62.45 | < 10 | – | –
C#Cc1ccc(C2=CCN(c3nc4c(c(NC5([C@@H](C)O)CCC5)n3)[S@@+]([O-])CC4)CC2)nc1 [Compound 95-3] | – | < 10 | – | – | < 10 | 81.97 | < 10 | – | –
COC(=O)NCC(C)(C)Nc1nc(N2C[C@@H]3CC(c4ncc5c(n4)CC5)=C[C@@H]3C2)nc2c1[S@+]([O-])CC2 [Compound 139-1] | – | < 10 | – | – | < 10 | 92.69 | < 10 | – | –
C#Cc1cnc(C2=CCN(c3nc4c(c(NC5([C@H](C)O)CCC5)n3)[S@@+]([O-])CC4)CC2)nc1 [Compound 96-4] | – | 10 to 50 | – | – | 10 to 50 | 70.23 | 10 to 50 | – | –
C#Cc1cnc(C2=CCN(c3nc4c(c(NC5(C(C)O)CCC5)n3)[S@+]([O-])CC4)CC2)nc1 (some centres unmarked) [Compound 66] | < 10 | < 10 | – | – | – | – | – | 67.1 | 10 to 50
NC(=O)OCC1(Nc2nc(N3CC=C(c4nc5ccccc5s4)CC3)nc3c2[S@+]([O-])CC3)CCC1 [Compound 56] | < 10 | < 10 | < 10 | – | – | – | – | – | –
C#Cc1cnc(C2=CCN(c3nc4c(c(NC5(COC(F)F)CCC5)n3)[S+]([O-])CC4)CC2)nc1 (centres unmarked) [Compound 63] | < 10 | < 10 | 10 to 50 | 72.7 | – | – | – | – | –
COC(=O)NCC1(Nc2nc(N3CC=C(c4ncc(Cl)cn4)CC3)nc3c2[S@+]([O-])CC3)CCC1 [Compound 70] | < 10 | < 10 | < 10 | 55.4 | – | – | – | – | –
C#Cc1cnc(C2=CCN(c3nc4c(c(NC5([C@H](C)O)CCC5)n3)[S@+]([O-])CC4)CC2)nc1 [Compound 96-2] | – | < 10 | – | – | < 10 | 81.63 | < 10 | – | –
NC(=O)OCC1(Nc2nc(N3C[C@H]4CC(c5ccc(Cl)cc5)=C[C@H]4C3)nc3c2[S@+]([O-])CC3)CCC1 [Compound 44] | – | 10 to 50 | – | – | < 10 | 77.27 | 10 to 50 | – | –
NC(=O)OCC1(Nc2nc(N3C[C@H]4CN(c5ccc6c(c5)CC6)C[C@H]4C3)nc3c2[S@+]([O-])CC3)CCC1 [Compound 58] | < 10 | 10 to 50 | – | – | – | – | – | – | –
NCC1(Nc2nc(N3CC=C(c4nc5ccccc5s4)CC3)nc3c2[S@+]([O-])CC3)CCC1 [Compound 78] | 10 to 50 | 10 to 50 | 10 to 50 | 77.4 | – | – | – | – | –
CN(C)c1cnc(C2=CCN(c3nc4c(c(NC(C)(C)COC(N)=O)n3)[S@+]([O-])CC4)CC2)nc1 [Compound 138] | 10 to 50 | 10 to 50 | – | – | – | – | – | – | –
[O-][S@@+]1CCCc2nc(N3C[C@H]4CN(c5ncc(Cl)cn5)C[C@H]4C3)nc(NC3(CO)CCC3)c21 [Compound 14-1] | – | 10 to 50 | – | – | 10 to 50 | – | – | – | –
CC(C)(COC(N)=O)Nc1nc(N2CC=C(c3ncc(C4CCC4)cn3)CC2)nc2c1[S@+]([O-])CC2 [Compound 126] | < 10 | 10 to 50 | – | – | – | – | – | – | –
N#CCC1(Nc2nc(N3CC=C(c4ncc(C5CC5)cn4)CC3)nc3c2[S@+]([O-])CC3)CCC1 [Compound 135] | < 10 | < 10 | – | – | – | – | – | – | –
